Assay results taken from patent US20170087165A1, “METHODS FOR REDUCING THE OCCURRENCE OF PRETERM DELIVERY AND OTHER PREGNANCY-RELATED CONDITIONS” (Lumara Health IP, Ltd., priority 2009, published 2017).
“And” between values parts separate entries of the source, which are not always exact repeats. Equal values may be shown once.

Experiments:
[1] = Analysis of the Example 1 trial by smoking status during pregnancy; format: in vivo, human; settings: women who smoked during pregnancy; 95% CI 0.0830, 0.5297
Description: (§1) In a double-blind, placebo-controlled trial, 463 pregnant women having a documented history of spontaneous preterm delivery received weekly injections of 250 mg […] caproate (17-HPC) or an inert castor oil placebo beginning at 16 to 20weeks of gestation and continuing until delivery or 36 weeks of gestation, whichever occurred first. […] A 2:1 ratio was used for the assignment of women to the 17-HPC or placebo group, since those in the placebo group would be subjected to painful injections on a weekly basis with no possibility of direct benefit. Thus, there were 310 women in the 17-HPC group and 153 women in the placebo group. The baseline characteristics of the women in the two groups were similar in terms of the mean duration of gestation of the qualifying delivery, the mean duration of gestation at the time of randomization, race or ethnic group, marital status, body mass index (BMI), educational level, smoking status, and substance use during pregnancy. The women in the placebo group had had more previous preterm deliveries (mean of 1.6 vs. 1.4 in the 17-HPC group). 91.5% of the study participants were compliant with all of their injections, noncompliance being defined as a gap of 10 days or more between any two injections, and there was no difference in the rate of compliance between the placebo group and the 17-HPC group. Preterm delivery was defined as delivery at less than 37 completed weeks (259 days) of gestation, calculated on the basis of the date of the last menstrual period and ultrasonography results.
(§2) In the clinical trial described in Example 1, 22.6% ([…]) of subjects in the 17-HPC group and 19.6% (30/153) of subjects in the placebo group smoked during pregnancy. […] Thus, it was apparent in the data that smoking increased the risk f or preterm delivery, measured either as delivery prior to 37 weeks of gestation.

[2] = tested on: women who smoked during pregnancy; assay: as above; format: in vivo, human
Description: as §1, §2

[3] = tested on: pregnant women having a documented history of spontaneous preterm delivery; settings: cited from earlier work
[4] = tested on: children of the mothers who participated in the trial; settings: cited from earlier work

CCCCCC(=O)O[C@]1(C(C)=O)CC[C@H]2[C@@H]3CCC4=CC(=O)CC[C@]4(C)[C@H]3CC[C@@]21C [17-HPC, 17alpha-hydroxyprogesterone caproate]
odds ratio of preterm delivery (<37 weeks) 17-HPC vs placebo [1]: 0.21 and 0.2097 | proportion of deliveries at less than 37 weeks of gestation, subjects who did not smoke during pregnancy ([2]; not smoking during pregnancy, 92/240, placebo 51.2% (63/123)): 38.3% | proportion of deliveries at less than 37 weeks of gestation, subjects who smoked during pregnancy ([2]; smoking during pregnancy, 23/70, placebo 70% (21/30)): 32.9% | incidence of preterm delivery at less than 37 weeks of gestation ([3]; 250 mg weekly injection from 16-20 weeks of gestation until delivery or 36 weeks, 111/306, placebo 54.9%): 36.3% | incidence of delivery at less than 32 weeks ([3]; 250 mg weekly, 35/306, P=0.02): 11.4% | incidence of delivery at less than 35 weeks of gestation ([3]; 250 mg weekly, 63/306, placebo 30.7%, P=0.02): 20.6% | incidence of necrotizing enterocolitis ([3]; infants of treated women, 0/305, placebo 2.6%, P=0.01): 0% | incidence of intraventricular hemorrhage of any grade ([3]; infants of treated women, 4/305, placebo 5.2%): 1.3% | incidence of birth weight of less than 1500 g ([3]; infants of treated women, 26/301, placebo 13.9%, P=0.08, non-significant): 8.6% | incidence of need for supplemental oxygen ([3]; infants of treated women, 45/303, placebo 23.8%): 14.9% | incidence of birth weight of less than 2500 g ([3]; infants of treated women, 82/301, placebo 41.1%, P=0.003): 27.2% | rate of intraventricular hemorrhage of grades 3 to 4 ([3]; versus placebo group): no significant difference between groups | rates of infant death, transient tachypnea in the newborn, distress syndrome, bronchopulmonary dysplasia, need for ventilatory support, retinopathy of prematurity, and patent ductus arteriosus ([3]; versus placebo group): slightly but not significantly lower | women needed to be treated to prevent one delivery before 32 weeks of gestation ([3]; women with similar risk level): 12 women | health status or physical examination of the children ([4]; mean age at follow up 48 months, 194 children in 17-HPC group vs 84 placebo): No significant differences | Ages and Stages Questionnaire (development in five areas) ([4]; mean age at follow up 48 months, versus placebo): no difference | safety for the fetus ([4]; weekly intramuscular injection to the mother during second and third trimesters): appears to be safe for the fetus
